Source: patent publication US11179435B2, “Hangover alleviating composition containing conjugate of sesamol and peptide as active ingredient” (CAREGEN CO., LTD., priority 2017, dated 2021)
Starred links: 1 amine or outer side, 2 acyl side, 3 side chain; linkers in the order of their positions; H or OH if unused. No end group written: not given here. Suc = O=C(CCC(=O)[*:2])[*:1]

Key:
Format in all cases: cell-based, human
[1] = system: aldehyde dehydrogenase (ALDH); test: ALDH activity assay in HepG2 cells treated with conjugate; conditions: 50 μM or 100 μM, 24 hours, compared to untreated control group
Description: Alcohol was converted to acetaldehyde by alcohol dehydrogenase (ADH), an alcohol degrading enzyme, and the converted acetaldehyde was converted and degraded to acetate by aldehyde dehydrogenase (ALDH). Therefore, in order to confirm the effect of increasing the activity of ALDH involved in the alcohol degradation process, liver carcinoma cells were treated with the two types of conjugates of the sesamol and the peptides prepared in [Preparation Example 2], respectively, and then the ALDH activity assay was performed.
Specifically, liver hepatocellular carcinoma (HepG2) cells, which were human liver carcinoma cells, were inoculated into a 6-well plate at a density of 4×10^5 cells/well and then incubated overnight. Thereafter, the two types of conjugates of the sesamol and the peptides prepared in [Preparation Example 2] were treated at a concentration of 50 μM or 100 μM, respectively, and incubated for 24 hours, and the cells were collected and then the ALDH activity was analyzed using an ALDH activity assay kit (abcam, ab155893). Meanwhile, a positive control group was treated with 5 μM sulfolaphane.
For the ALDH activity assay, each of the collected cells was treated with an ALDH activity assay buffer included in the kit, and then lysed with a homogenizer under ice. […] Thereafter, the ALDH activity was calculated using the following [Equation 1]. […]

[2] = system: ALDH2; test: RT-PCR mRNA expression in HepG2 cells; conditions: 10 μM or 50 μM, 6 hours, compared with untreated control group
Description: (§1) In order to confirm an effect of increasing the expression of ADH and ALDH involved in the alcohol degradation process, liver carcinoma cells were treated with the two types of conjugates of the sesamol and the peptides prepared in [Preparation Example 2], respectively, and then RT-PCR was performed.
(§2) Specifically, HepG2 cells were inoculated in a 6-well plate at a density of 4×10^5 cells/well, and then incubated overnight. Thereafter, the two types of conjugates of the sesamol and the peptides prepared in [Preparation Example 2] were treated at a concentration of 10 μM or 50 μM, respectively, and incubated for 6 hours, and the cells were collected. Thereafter, the total RNA was isolated from the collected cells according to a manufacturer's protocol using Trizol (Invitrogen, USA), and then 1 μg of the isolated RNA was synthesized to cDNA according to a manufacturer's protocol using a cDNA synthesis kit (Intron, Korea). The cDNA was subjected to PCR using primers shown in Table 2 below, and then electrophoresed on a 5% agarose gel to confirm mRNA expression levels of ADH4, ALDH1, and ALDH2.

[3] = system: ADH4; test: RT-PCR mRNA expression in HepG2 cells; conditions: 10 μM or 50 μM, 6 hours, compared with untreated control group
Description: as §1, §2

[4] = system: ALDH1; test: RT-PCR mRNA expression in HepG2 cells; conditions: 10 μM or 50 μM, 6 hours, compared with untreated control group
Description: as §1, §2

## SEQ ID NO: 1: Sesamol linked via succinyl linker to the N-terminus of peptide SIPCKLQSG (SEQ ID NO: 1) ({sesamol-Suc}-SIPCKLQSG)
[1]
  ALDH activity: increased in a concentration-dependent manner
[2]
  mRNA expression of ALDH2: significantly increased
[3]
  mRNA expression of ADH4: significantly increased
[4]
  mRNA expression of ALDH1: significantly increased
